Experimental data taken from ChEMBL document CHEMBL4834451, “Anti-chronic myeloid leukemia activity and quantitative structure-activity relationship of novel thiazole aminobenzamide derivatives” (Bioorg Med Chem Lett, 2021).

How the values were obtained:
K562 = assay: Antiproliferative activity against human K562 cells by MTS assay; assay type: functional, cell-based
[1] = Antiproliferative activity against imatinib-resistant human K562R cells by MTS assay; assay type: functional, cell-based
BaF3 = assay: Antiproliferative activity against mouse BaF3 cells harbouring BCR-ABL T315I mutant by MTS assay; assay type: cell-based
L02 = assay: Antiproliferative activity against human L02 cells by MTS assay; assay type: cell-based
[2] = K562, read-out: pIC50 (converted)

| SMILES | IC50 (K562) [µM] | IC50 ([1]; K562, read-out: IC50) [µM] | IC50 (BaF3) [µM] | IC50 (L02) [µM] | IC50 [1, 2] [µM] |
| --- | --- | --- | --- | --- | --- |
| Cc1sc(Nc2cccc(C(=O)NCC(=O)O)c2)nc1-c1ccc(F)cc1 | 87.8 | > 100 | > 64 | > 100 | – |
| CCc1sc(Nc2cccc(C(=O)NCC(=O)O)c2)nc1-c1ccc(Cl)cc1 | > 100 | > 100 | – | > 100 | – |
| Cc1sc(Nc2cccc(C(=O)N[C@@H](Cc3ccccc3)C(=O)O)c2)nc1-c1ccc(C(F)(F)F)cc1 | 44.1 | 78.1 | – | > 100 | 78.2 |
| CC(=O)[C@H](Cc1ccccc1)NC(=O)c1cccc(Nc2nc(-c3ccc(C)cc3)c(C)s2)c1 | 83.6 | 14.7 | – | > 100 | 14.7 |
| Cc1ccc(-c2nc(Nc3cccc(C(=O)NCC(=O)O)c3)sc2C)cc1 | > 100 | > 100 | – | > 100 | – |
| CC(=O)[C@H](Cc1ccccc1)NC(=O)c1cccc(Nc2nc(-c3ccc(F)cc3)c(C)s2)c1 | 28.6 | 12.8 | 19.1 | > 100 | 12.9 |
| Cc1sc(Nc2cccc(C(=O)N[C@@H](Cc3ccccc3)C(=O)O)c2)nc1-c1ccc(F)cc1 | 79.5 | 41.3 | – | > 100 | 41.3 |
| CC(=O)CNC(=O)c1cccc(Nc2nc(-c3ccc(C)cc3)c(C)s2)c1 | > 100 | 50.2 | – | > 100 | 50.2 |
| Cc1sc(Nc2cccc(C(=O)NCC(=O)O)c2)nc1-c1ccccc1 | 57.6 | 61.7 | – | > 100 | 61.7 |
| Cc1sc(Nc2cccc(C(=O)N[C@@H](Cc3ccccc3)C(=O)O)c2)nc1-c1ccc(Cl)cc1 | 51 | 48.1 | – | > 100 | 48.1 |
| Cc1sc(Nc2cccc(C(=O)N[C@@H](Cc3ccccc3)C(=O)O)c2)nc1-c1ccccc1 | 66 | 86.8 | – | > 100 | 86.9 |
| CCc1sc(Nc2cccc(C(=O)N[C@@H](Cc3ccccc3)C(C)=O)c2)nc1-c1ccc(Cl)cc1 | > 100 | 15.9 | – | > 100 | 15.9 |
| Cc1sc(Nc2cccc(C(=O)NCC(=O)O)c2)nc1-c1ccc(O)cc1 | 71.8 | > 100 | – | > 100 | – |
| Cc1sc(Nc2cccc(C(=O)NCC(=O)O)c2)nc1-c1ccc(C(F)(F)F)cc1 | 34.8 | > 100 | > 64 | > 100 | – |
| CC(=O)[C@H](Cc1ccccc1)NC(=O)c1cccc(Nc2nc(-c3ccc(Cl)cc3)c(C)s2)c1 | 51.4 | 11.3 | – | > 100 | 11.4 |
| Cc1sc(Nc2cccc(C(=O)N[C@@H](Cc3ccccc3)C(=O)O)c2)nc1-c1ccc(O)cc1 | 68.9 | 62.9 | – | > 100 | 63 |
| CCc1sc(Nc2cccc(C(=O)N[C@@H](Cc3ccccc3)C(=O)O)c2)nc1-c1ccccc1 | 93.3 | 78 | – | > 100 | 78 |

| SMILES | IC50 (K562) [µM] | IC50 ([1]; K562, read-out: IC50) [µM] | IC50 (BaF3) [µM] | IC50 (L02) [µM] | IC50 [1, 2] [µM] |
| --- | --- | --- | --- | --- | --- |
| CC(=O)CNC(=O)c1cccc(Nc2nc(-c3ccc(C(F)(F)F)cc3)c(C)s2)c1 | 40.9 | 35.4 | – | > 100 | 35.4 |
| CCc1sc(Nc2cccc(C(=O)NCC(C)=O)c2)nc1-c1ccc(Cl)cc1 | > 100 | > 100 | – | > 100 | – |
| CC(=O)CNC(=O)c1cccc(Nc2nc(-c3ccc(O)cc3)c(C)s2)c1 | 66.3 | 68.3 | > 64 | > 100 | 68.2 |
| CC(=O)CNC(=O)c1cccc(Nc2nc(-c3ccccc3)c(C)s2)c1 | > 100 | > 100 | – | > 100 | – |
| CC(=O)[C@H](Cc1ccccc1)NC(=O)c1cccc(Nc2nc(-c3ccc(O)cc3)c(C)s2)c1 | 8.32 | 7.31 | 36.6 | > 100 | 7.31 |
| Cc1sc(Nc2cccc(C(=O)NCC(=O)O)c2)nc1-c1ccc(Cl)cc1 | 60.5 | 71.5 | – | > 100 | 71.4 |
| CCc1sc(Nc2cccc(C(=O)N[C@@H](Cc3ccccc3)C(=O)O)c2)nc1-c1ccc(Cl)cc1 | > 100 | > 100 | – | > 100 | – |
| CC(=O)[C@H](Cc1ccccc1)NC(=O)c1cccc(Nc2nc(-c3ccccc3)c(C)s2)c1 | 53.1 | 30.2 | – | > 100 | 30.2 |
| CCc1sc(Nc2cccc(C(=O)NCC(C)=O)c2)nc1-c1ccccc1 | 61.7 | 17.6 | – | > 100 | 17.6 |
| CCc1sc(Nc2cccc(C(=O)N[C@@H](Cc3ccccc3)C(C)=O)c2)nc1-c1ccccc1 | > 100 | 17.2 | – | > 100 | 17.2 |
| CC(=O)CNC(=O)c1cccc(Nc2nc(-c3ccc(Cl)cc3)c(C)s2)c1 | > 100 | > 100 | – | > 100 | – |
| CCc1sc(Nc2cccc(C(=O)NCC(=O)O)c2)nc1-c1ccccc1 | > 100 | > 100 | – | > 100 | – |
| CC(=O)[C@H](Cc1ccccc1)NC(=O)c1cccc(Nc2nc(-c3ccc(C(F)(F)F)cc3)c(C)s2)c1 | 28.7 | 8.47 | 19.8 | > 100 | 8.47 |
| Cc1ccc(-c2nc(Nc3cccc(C(=O)N[C@@H](Cc4ccccc4)C(=O)O)c3)sc2C)cc1 | 48.8 | 63.4 | – | > 100 | 63.4 |
| CC(=O)CNC(=O)c1cccc(Nc2nc(-c3ccc(F)cc3)c(C)s2)c1 | > 100 | > 100 | – | > 100 | – |
| Cc1ccc(NC(=O)c2ccc(CN3CCN(C)CC3)cc2)cc1Nc1nccc(-c2cccnc2)n1 [IMATINIB] | 4.63 | > 100 | – | > 100 | – |
